Measured values: PMC9784495, “Pharmacokinetic Comparison of Ginsenosides between Fermented and Non-Fermented Red Ginseng in Healthy Volunteers” (Pharmaceutics, 2022)
Several values for one entry are separate records, joined by “and”; a condition that tells them apart may be missing. Equal entries are not always repeated. Entries after “also recorded” stand apart in the source; their conditions may differ. Where two headings read alike, the source gives them in different places. Marks after values point to notes of the source that are not given here.

Experiment: Pharmacokinetics of ginsenosides in plasma after a single oral dose of 6 g FRG or RG, crossover clinical trial
Format: in vivo, human
Details: for AUC24 GMR (90% CI) / AUClast GMR (90% CI) / Cmax GMR (90% CI): geometric mean ratio FRG with respect to RG; for Tmax / AUC / Cmax / AUC(0-t): human, po
Procedure: This study was designed as a randomized, open-label, single-dose, 2-sequence, 2-period crossover study with a washout period of 2 weeks to compare the pharmacokinetic parameters of ginsenosides in RG and FRG. All subjects underwent a screening test for enrollment in the current study, and the enrolled subjects were randomly allocated into one of two sequence groups: sequence 1, and sequence 2. The subjects in sequence group 1 were administered 6 g of FRG extract with 200 mL water in the first period, and 6 g of RG extract with 200 mL water in the second period, after a washout period of 2 weeks from the first administration. Subjects in sequence group 2 were administered 6 g of RG extract with 200 mL water in the first period, and then 6 g of FRG extract with 200 mL water in the second period, after the same washout period. During each period, for groups 1 and 2, subjects were hospitalized at the clinical trial center of Kyung Hee University Hospital at 5 PM the day before FRG or RG administration. They received a standardized dinner and fasted, except for drinking water, until FRG or RG administration. The following day, subjects were administered FRG or RG at 8 AM according to the assigned sequence group, and were not allowed to eat until 1 PM. All participants were provided lunch and dinner by the study staff. They were discharged at 2 PM the day after dosing with FRG or RG, and visited the clinical trial center at 8 AM the day after discharge. To assess pharmacokinetic parameters, blood samples (9 mL) were serially collected into heparinized tubes just before (0 h) the dose of FRG or RG, and after the dose of FRG or RG at the following time points: 0.5, 1, 2, 3, 4, 5, 6, 7, 8, 10, 12, 14, 24, and 30 h during hospitalization, and 48 h at the outpatient visit. Blood samples were placed into heparinized tubes and centrifuged immediately at 3500× g, 10 min, and −4 °C. Plasma was stored at −70 °C.
CY, CK, PPD, PPT, and Rh2 were analyzed as previously described. An Agilent 1200 series (Agilent Technologies, Santa Clara, CA, USA) or Shimadzu Nexera X2 (Shimadzu, Tokyo, Japan), and Applied Biosystems MDS SCIEX API 4000 Triple Quadrupole Mass Spectrometer (SCIEX, Framingham, MA, USA) with an ESI source in the negative ion mode, were used. Data were analyzed and processed using the Analyst 1.6.2 program (SCIEX, Framingham, MA, USA). Rb1 and F2 were analyzed using Elute UHPLC (Bruker, Billerica, MA, USA) and an EVOQ Elite triple quadrupole mass spectrometer (Bruker, Billerica, MA, USA) with an ESI source in positive ion mode. Data were acquired and processed using the Analyst 1.6.2 program (SCIEX, Framingham, MA, USA), and Bruker Daltonic MS Workstation 8.2.1 (Bruker, Billerica, MA, USA). Ginsenosides standards (Rb1, Rh2 and C-Y) were provided by the Ambo Institute (Daejeon, Republic of Korea). Ginsenosides standards (F2, CK, PPD and PPT) were provided by Ace Enzyme (Kyunggi-do, Republic of Korea). Digoxin, diphenhydramine hydrochloride, formic acid, ammonium acetate, and dimethyl sulfoxide were purchased from Sigma Aldrich (Saint Louis, MO, USA). Methanol, acetonitrile, ethyl acetate, and methyl tertiary butyl ether were purchased from J.T. Baker (Philipsburg, NJ, USA) and purified water for HPLC analysis was obtained using AQUA max® by Younglin (Kyunggi-do, Republic of Korea) water purification system. The final concentrations of the calibration standards were 0.5, 1, 2, 5, 10, 25, and 50 ng/mL, and those of the QC samples were 1.5, 7.5, and 40 ng/mL. The final concentrations of the CK calibration standard were 5, 50, 250, 500, 1000, 1500, and 2500 ng/mL, and those of the QC samples were 15, 1200, and 2000 ng/mL. The human plasma samples were taken out of the −70 °C freezer and thawed at room temperature for the bioanalysis. […]

[1] = plasma, after 6 g FRG oral single dose, median (min, max), read-out: Tmax
[2] = plasma, plasma, after 6 g FRG oral single dose, 0 to 24 h, mean ± SD, read-out: AUC24
[3] = plasma, plasma, after 6 g FRG oral single dose, healthy volunteers, mean ± SD, n = 15, read-out: Cmax
[4] = plasma, plasma, after 6 g FRG oral single dose, mean ± SD, read-out: AUClast
[5] = plasma, plasma, after 6 g RG oral single dose, 0 to 24 h, mean ± SD, read-out: AUC24
[6] = plasma, plasma, after 6 g RG oral single dose, healthy volunteers, mean ± SD, n = 15, read-out: Cmax
[7] = plasma, plasma, after 6 g RG oral single dose, mean ± SD, read-out: AUClast
[8] = plasma, after 6 g RG oral single dose, median (min, max), read-out: Tmax

| Structure (SMILES) | AUC24 GMR (90% CI) | AUClast GMR (90% CI) | Cmax GMR (90% CI) | Tmax [1] [h] | AUC [2] [ng·h/mL] | Cmax [3] [ng/mL] | AUC(0-t) [4] [ng·h/mL] | AUC [5] [ng·h/mL] | Cmax [6] [ng/mL] | AUC(0-t) [7] [ng·h/mL] | Tmax [8] [h] | further results |
| --- | --- | --- | --- | --- | --- | --- | --- | --- | --- | --- | --- | --- |
| CC(C)=CCC[C@](C)(O[C@@H]1O[C@H](CO)[C@@H](O)[C@H](O)[C@H]1O)[C@H]1CC[C@]2(C)[C@@H]1[C@H](O)C[C@@H]1[C@@]3(C)CC[C@H](O)C(C)(C)[C@@H]3CC[C@]12C [CK, compound K] | 64.86 fold and 64.86 (51.12, 82.29) * fold | 74.53 fold and 74.53 (59.32, 93.64) * fold | 69.23 fold and 69.23 (55.93, 85.69) * fold | 3.02 | 8710 ± 2360 | 1550 ± 394 | 9440 ± 2620 | 158 ± 125 | 23.8 ± 12.2 | 145 ± 106 |  | Difference of median Tmax, FRG higher than RG (FRG versus RG): 1 h |
| CC(C)=CCC[C@](C)(O[C@@H]1O[C@H](CO[C@@H]2OC[C@H](O)[C@H](O)[C@H]2O)[C@@H](O)[C@H](O)[C@H]1O)[C@H]1CC[C@]2(C)[C@@H]1[C@H](O)C[C@@H]1[C@@]3(C)CC[C@H](O)C(C)(C)[C@@H]3CC[C@]12C [CY, compound Y] |  |  |  |  |  |  |  |  |  |  |  | AUC (in vivo, AUC24): 33.4 ± 9.82 ng·h/mL; AUC(0-t) (in vivo, AUClast): 32.5 ± 9.44 ng·h/mL; Cmax (in vivo, Cmax): 8.38 ± 2.22 ng/mL; Tmax (in vivo, Tmax): 3.02 h |
| CC(C)=CCC[C@](C)(O[C@@H]1O[C@H](CO)[C@@H](O)[C@H](O)[C@H]1O)[C@H]1CC[C@]2(C)[C@@H]1[C@H](O)C[C@@H]1[C@@]3(C)CC[C@H](O[C@@H]4O[C@H](CO)[C@@H](O)[C@H](O)[C@H]4O)C(C)(C)[C@@H]3CC[C@]12C [Ginsenoside F2] |  |  |  | 4.03 | 142 ± 34.3 | 14.7 ± 3.58 | 168 ± 47.4 |  |  |  |  | Plasma concentrations (after 6 g RG, F2 except one subject): below the lower limit of quantification; also recorded: below the LLOQ |
| CC(C)=CCC[C@](C)(O)[C@H]1CC[C@]2(C)[C@@H]1[C@H](O)C[C@@H]1[C@@]3(C)CC[C@H](O)C(C)(C)[C@@H]3CC[C@]12C [PPD, protopanaxadiol] |  | 4.97 (2.38, 10.34) ^‡ fold |  | 12 | 48.7 ± 41.1 | 5.65 ± 4.78 | 92.2 ± 96.5 | 13.9 ± 19.1 | 1.99 ± 1.62 | 20.3 ± 25.1 | 27.1 |  |
| CC(C)=CCC[C@](C)(O)[C@H]1CC[C@]2(C)[C@@H]1[C@H](O)C[C@@H]1[C@@]3(C)CC[C@H](O)C(C)(C)[C@@H]3[C@@H](O)C[C@]12C [PPT, protopanaxatriol] | 1.87 fold and 1.87 (1.16, 3.01) ^† fold | 1.76 fold and 1.76 (1.17, 2.65) ^† fold | 2.56 fold and 2.56 (1.83, 3.57) * fold | 6 | 63.7 ± 42.8 | 8.92 ± 5.38 | 83 ± 59.4 | 34.1 ± 24.7 | 3.5 ± 2 | 45.7 ± 32.1 | 19 |  |
| CC(C)=CCC[C@](C)(O[C@@H]1O[C@H](CO[C@@H]2O[C@H](CO)[C@@H](O)[C@H](O)[C@H]2O)[C@@H](O)[C@H](O)[C@H]1O)[C@H]1CC[C@]2(C)[C@@H]1[C@H](O)C[C@@H]1[C@@]3(C)CC[C@H](O[C@@H]4O[C@H](CO)[C@@H](O)[C@H](O)[C@H]4O[C@@H]4O[C@H](CO)[C@@H](O)[C@H](O)[C@H]4O)C(C)(C)[C@@H]3CC[C@]12C [Rb1] |  |  |  |  |  |  |  | 36.5 ± 25.6 | 2.33 ± 1.61 | 62.4 ± 48.1 | 8 | Plasma concentrations (after 6 g FRG): below the LLOQ |
| CC(C)=CCC[C@](C)(O)[C@H]1CC[C@]2(C)[C@@H]1[C@H](O)C[C@@H]1[C@@]3(C)CC[C@H](O[C@@H]4O[C@H](CO)[C@@H](O)[C@H](O)[C@H]4O)C(C)(C)[C@@H]3CC[C@]12C [Rh2] | 18.17 fold and 18.17 (12.4, 26.62) * fold | 18.47 fold and 18.47 (12.74, 26.78) * fold | 20.27 fold and 20.27 (15.13, 27.17) * fold |  |  |  |  |  |  |  |  | Tmax (in vivo, after 6 g FRG oral single dose, median (min, max), read-out: Tmax): 3.02 h; Tmax (in vivo, after 6 g RG oral single dose, median (min, max), read-out: Tmax): 3 h; AUC (in vivo, plasma, after 6 g FRG oral single dose, 0 to 24 h, mean ± SD, read-out: AUC24): 135 ± 44.4 ng·h/mL; Cmax (in vivo, plasma, after 6 g FRG oral single dose, healthy volunteers, mean ± SD, n = 15, read-out: Cmax): 33 ± 11.9 ng/mL; AUC(0-t) (in vivo, plasma, after 6 g FRG oral single dose, mean ± SD, read-out: AUClast): 133 ± 42.6 ng·h/mL; AUC (in vivo, plasma, after 6 g RG oral single dose, 0 to 24 h, mean ± SD, read-out: AUC24): 8.97 ± 5.57 ng·h/mL; Cmax (in vivo, plasma, after 6 g RG oral single dose, healthy volunteers, mean ± SD, n = 15, read-out: Cmax): 1.77 ± 1.17 ng/mL; AUC(0-t) (in vivo, plasma, after 6 g RG oral single dose, mean ± SD, read-out: AUClast): 8.35 ± 4.31 ng·h/mL |
